The kinase profiling compilation of Christmann-Franck et al. (2016)

Columns and labels:
Assay in all cases: radiometric filter-binding kinase assay, Kinaseprofiler
PAK3 (human) = PAK3 (human) (UniProt O75914); settings: compound 1.0 µM; ATP 120 µM
SRPK2 (human) = SRPK2 (human) (UniProt P78362); settings: compound 1.0 µM; ATP 10 µM
MAPK12 (human) = MAPK12 (human) (UniProt P53778); settings: compound 1.0 µM; ATP 15 µM
ALK (human) = ALK (human) (UniProt Q9UM73); settings: compound 1.0 µM; ATP 200 µM
Chain of ALK (human) (Q9UM73 whole entry, looked up): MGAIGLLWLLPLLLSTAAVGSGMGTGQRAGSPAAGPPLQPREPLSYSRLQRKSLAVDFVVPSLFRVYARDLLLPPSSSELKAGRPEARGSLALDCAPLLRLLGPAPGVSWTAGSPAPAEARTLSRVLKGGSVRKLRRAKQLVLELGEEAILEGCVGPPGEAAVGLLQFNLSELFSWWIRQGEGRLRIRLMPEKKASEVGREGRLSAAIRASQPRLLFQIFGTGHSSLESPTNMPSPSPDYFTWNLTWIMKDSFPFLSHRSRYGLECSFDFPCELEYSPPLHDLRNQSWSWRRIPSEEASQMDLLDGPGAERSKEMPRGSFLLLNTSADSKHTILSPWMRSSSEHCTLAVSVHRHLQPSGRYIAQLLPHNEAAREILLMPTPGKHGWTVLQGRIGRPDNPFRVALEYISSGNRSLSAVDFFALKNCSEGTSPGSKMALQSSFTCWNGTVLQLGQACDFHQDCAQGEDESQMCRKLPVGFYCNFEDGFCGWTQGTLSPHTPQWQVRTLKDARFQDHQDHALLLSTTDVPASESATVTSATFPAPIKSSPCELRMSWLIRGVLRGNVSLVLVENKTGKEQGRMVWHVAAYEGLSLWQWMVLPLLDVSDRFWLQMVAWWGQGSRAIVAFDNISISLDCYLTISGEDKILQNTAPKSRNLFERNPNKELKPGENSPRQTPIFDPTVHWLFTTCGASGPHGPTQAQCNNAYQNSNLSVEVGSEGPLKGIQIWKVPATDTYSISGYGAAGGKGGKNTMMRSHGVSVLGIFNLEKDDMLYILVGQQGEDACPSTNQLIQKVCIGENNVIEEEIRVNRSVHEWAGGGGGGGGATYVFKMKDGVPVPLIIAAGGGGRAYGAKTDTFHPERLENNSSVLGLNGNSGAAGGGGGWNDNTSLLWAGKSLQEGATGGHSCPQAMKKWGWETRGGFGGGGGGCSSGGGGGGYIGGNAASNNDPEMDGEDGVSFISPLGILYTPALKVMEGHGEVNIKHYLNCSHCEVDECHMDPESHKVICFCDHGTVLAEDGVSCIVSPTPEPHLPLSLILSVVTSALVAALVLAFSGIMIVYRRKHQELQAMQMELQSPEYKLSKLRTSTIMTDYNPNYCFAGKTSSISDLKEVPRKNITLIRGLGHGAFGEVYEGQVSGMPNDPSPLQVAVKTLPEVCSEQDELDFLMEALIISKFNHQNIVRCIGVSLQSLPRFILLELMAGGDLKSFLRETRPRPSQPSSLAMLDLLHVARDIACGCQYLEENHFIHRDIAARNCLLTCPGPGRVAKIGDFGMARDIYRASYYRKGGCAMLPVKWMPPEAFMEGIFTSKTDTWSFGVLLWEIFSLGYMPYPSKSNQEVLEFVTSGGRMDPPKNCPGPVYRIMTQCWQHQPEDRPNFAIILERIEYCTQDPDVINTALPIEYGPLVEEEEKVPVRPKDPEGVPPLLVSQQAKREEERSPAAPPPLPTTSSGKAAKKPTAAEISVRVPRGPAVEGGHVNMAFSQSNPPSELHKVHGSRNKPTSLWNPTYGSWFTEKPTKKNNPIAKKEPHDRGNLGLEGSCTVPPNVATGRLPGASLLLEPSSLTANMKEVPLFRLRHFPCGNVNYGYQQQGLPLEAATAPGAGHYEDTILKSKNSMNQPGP

ZAP70 (human) = ZAP70 (human) (UniProt P43403); settings: compound 1.0 µM; ATP 15 µM
DMPK (human) = DMPK (human) (UniProt Q09013); settings: compound 1.0 µM; ATP 10 µM
Chain of DMPK (human) (Q09013 whole entry, looked up): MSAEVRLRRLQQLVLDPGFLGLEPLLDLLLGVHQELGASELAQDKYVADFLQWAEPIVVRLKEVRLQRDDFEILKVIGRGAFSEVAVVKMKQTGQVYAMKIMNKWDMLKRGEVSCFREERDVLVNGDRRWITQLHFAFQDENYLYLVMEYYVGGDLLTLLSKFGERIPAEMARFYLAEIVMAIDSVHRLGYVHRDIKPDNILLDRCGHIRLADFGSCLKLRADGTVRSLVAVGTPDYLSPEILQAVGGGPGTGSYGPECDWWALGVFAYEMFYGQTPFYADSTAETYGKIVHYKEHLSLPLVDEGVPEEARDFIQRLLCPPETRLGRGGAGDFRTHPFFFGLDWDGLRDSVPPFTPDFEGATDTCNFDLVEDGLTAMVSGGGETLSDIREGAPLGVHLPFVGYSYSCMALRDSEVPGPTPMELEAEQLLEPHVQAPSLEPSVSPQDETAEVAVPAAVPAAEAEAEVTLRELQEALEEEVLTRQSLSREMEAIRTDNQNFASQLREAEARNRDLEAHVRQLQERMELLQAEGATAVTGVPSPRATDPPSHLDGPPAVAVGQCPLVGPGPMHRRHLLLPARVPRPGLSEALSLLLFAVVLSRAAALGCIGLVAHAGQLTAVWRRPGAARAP

ROCK1 (human) = ROCK1 (human) (UniProt Q13464); settings: compound 1.0 µM; ATP 70 µM
[1] = tested on: MARK1 (human), Q9P0L2 [V16E/T20S]; settings: compound 1.0 µM; ATP 10 µM
CHEK2 (human) = CHEK2 (human) (UniProt O96017); settings: compound 1.0 µM; ATP 70 µM
TSSK1B (human) = TSSK1B (human) (UniProt Q9BXA7); settings: compound 1.0 µM; ATP 15 µM
EPHA8 (human) = EPHA8 (human) (UniProt P29322); settings: compound 1.0 µM; ATP 200 µM
[2] = tested on: GSK3A (human), P49840 [S449A]; settings: compound 1.0 µM; ATP 10 µM
[3] = tested on: RAF1 (human), P04049 [Y340D/Y341D]; settings: compound 1.0 µM; ATP 45 µM
PRKCB1 (human) = PRKCB1 (human) (UniProt P05771); settings: compound 1.0 µM; ATP 10 µM
Chain of PRKCB1 (human) (P05771 whole entry, looked up): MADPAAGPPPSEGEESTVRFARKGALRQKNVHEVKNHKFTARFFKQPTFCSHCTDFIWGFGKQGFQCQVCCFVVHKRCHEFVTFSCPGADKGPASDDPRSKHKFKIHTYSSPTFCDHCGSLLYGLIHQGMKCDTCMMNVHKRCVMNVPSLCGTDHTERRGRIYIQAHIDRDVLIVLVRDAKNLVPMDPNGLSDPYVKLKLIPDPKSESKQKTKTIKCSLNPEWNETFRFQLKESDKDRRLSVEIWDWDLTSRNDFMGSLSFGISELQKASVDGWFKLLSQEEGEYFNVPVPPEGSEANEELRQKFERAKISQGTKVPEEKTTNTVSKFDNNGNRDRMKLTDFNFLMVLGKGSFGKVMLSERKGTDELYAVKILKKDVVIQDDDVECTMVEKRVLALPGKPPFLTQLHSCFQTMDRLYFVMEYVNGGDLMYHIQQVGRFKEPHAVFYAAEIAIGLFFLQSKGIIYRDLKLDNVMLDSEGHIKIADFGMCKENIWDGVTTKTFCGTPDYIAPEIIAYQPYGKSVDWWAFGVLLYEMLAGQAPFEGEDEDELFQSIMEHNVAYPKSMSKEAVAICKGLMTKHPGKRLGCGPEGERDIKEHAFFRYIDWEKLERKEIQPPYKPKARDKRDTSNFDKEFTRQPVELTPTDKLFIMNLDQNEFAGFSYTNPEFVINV

STK11 (human) = STK11 (human) (UniProt Q15831); settings: compound 1.0 µM; ATP 155 µM
NEK11 (human) = NEK11 (human) (UniProt Q8NG66); settings: compound 1.0 µM; ATP 200 µM
MYLK (human) = MYLK (human) (UniProt Q15746); settings: compound 1.0 µM; ATP 70 µM
SGK3 (human) = SGK3 (human) (UniProt Q96BR1); settings: compound 1.0 µM; ATP 155 µM
PASK (human) = PASK (human) (UniProt Q96RG2); settings: compound 1.0 µM; ATP 15 µM
PDGFRB (human) = PDGFRB (human) (UniProt P09619); settings: compound 1.0 µM; ATP 200 µM
TYRO3 (human) = TYRO3 (human) (UniProt Q06418); settings: compound 1.0 µM; ATP 45 µM
[4] = tested on: SGK1 (human), O00141 [S422D]; settings: compound 1.0 µM; ATP 90 µM
[5] = tested on: IRAK4 (human), Q9NWZ3 [A81V]; settings: compound 1.0 µM; ATP 200 µM
RPS6KA2 KD1 KD2 (human) = RPS6KA2 KD1 KD2 (human) (UniProt Q15349); settings: compound 1.0 µM; ATP 10 µM
MINK1 (human) = MINK1 (human) (UniProt Q8N4C8); settings: compound 1.0 µM; ATP 185 µM
Chain of MINK1 (human) (Q8N4C8 whole entry, looked up): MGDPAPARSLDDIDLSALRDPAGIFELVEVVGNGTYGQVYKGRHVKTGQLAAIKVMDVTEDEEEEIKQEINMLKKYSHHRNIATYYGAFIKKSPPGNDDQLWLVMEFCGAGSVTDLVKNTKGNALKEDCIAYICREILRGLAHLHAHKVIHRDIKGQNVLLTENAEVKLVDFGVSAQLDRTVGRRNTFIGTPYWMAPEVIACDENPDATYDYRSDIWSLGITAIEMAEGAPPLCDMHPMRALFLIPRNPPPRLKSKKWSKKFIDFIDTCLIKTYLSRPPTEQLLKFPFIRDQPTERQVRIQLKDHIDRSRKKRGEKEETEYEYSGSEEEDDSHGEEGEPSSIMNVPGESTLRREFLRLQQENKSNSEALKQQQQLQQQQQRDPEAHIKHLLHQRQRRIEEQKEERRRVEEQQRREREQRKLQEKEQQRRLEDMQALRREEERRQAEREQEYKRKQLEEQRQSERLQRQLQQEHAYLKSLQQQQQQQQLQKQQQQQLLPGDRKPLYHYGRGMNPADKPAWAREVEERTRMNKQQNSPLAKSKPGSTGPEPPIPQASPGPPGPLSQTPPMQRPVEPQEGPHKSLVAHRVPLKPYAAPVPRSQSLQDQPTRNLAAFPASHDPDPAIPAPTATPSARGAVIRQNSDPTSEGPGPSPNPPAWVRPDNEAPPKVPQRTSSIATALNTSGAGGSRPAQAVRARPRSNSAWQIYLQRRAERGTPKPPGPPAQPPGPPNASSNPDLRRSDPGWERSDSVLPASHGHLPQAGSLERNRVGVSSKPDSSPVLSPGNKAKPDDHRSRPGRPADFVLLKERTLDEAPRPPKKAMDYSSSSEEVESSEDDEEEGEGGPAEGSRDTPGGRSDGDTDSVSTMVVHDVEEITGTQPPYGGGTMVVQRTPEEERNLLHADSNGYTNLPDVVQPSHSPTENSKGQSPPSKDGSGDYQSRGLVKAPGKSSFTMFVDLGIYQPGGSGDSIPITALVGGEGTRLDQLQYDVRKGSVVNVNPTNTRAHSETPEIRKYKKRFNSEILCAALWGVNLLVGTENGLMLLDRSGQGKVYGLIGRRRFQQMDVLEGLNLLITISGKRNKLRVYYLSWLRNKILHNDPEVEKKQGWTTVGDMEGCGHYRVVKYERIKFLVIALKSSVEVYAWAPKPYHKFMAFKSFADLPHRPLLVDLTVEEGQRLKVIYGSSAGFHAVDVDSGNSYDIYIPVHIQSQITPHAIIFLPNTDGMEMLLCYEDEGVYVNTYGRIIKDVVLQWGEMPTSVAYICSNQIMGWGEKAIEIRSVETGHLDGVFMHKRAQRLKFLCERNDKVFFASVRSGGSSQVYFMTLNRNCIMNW

IGF1R (human) = IGF1R (human) (UniProt P08069); settings: compound 1.0 µM; ATP 200 µM
FGFR3 (human) = FGFR3 (human) (UniProt P22607); settings: compound 1.0 µM; ATP 15 µM
EPHA4 (human) = EPHA4 (human) (UniProt P54764); settings: compound 1.0 µM; ATP 15 µM
STK10 (human) = STK10 (human) (UniProt O94804); settings: compound 1.0 µM; ATP 200 µM
[6] = tested on: AXL (human), P30530 [Q764R]; settings: compound 1.0 µM; ATP 90 µM
[7] = tested on: BRSK2 (human), Q8IWQ3 [S251I]; settings: compound 1.0 µM; ATP 70 µM
SIK1 (human) = SIK1 (human) (UniProt P57059); settings: compound 1.0 µM; ATP 45 µM
[8] = tested on: FLT3 (human), P36888 [D835Y]; settings: compound 1.0 µM; ATP 200 µM
FES (human) = FES (human) (UniProt P07332); settings: compound 1.0 µM; ATP 45 µM
PTK2B (human) = PTK2B (human) (UniProt Q14289); settings: compound 1.0 µM; ATP 90 µM
RPS6KA4 KD1 KD2 (human) = RPS6KA4 KD1 KD2 (human) (UniProt O75676); settings: compound 1.0 µM; ATP 45 µM
Chain of RPS6KA4 KD1 KD2 (human) (O75676 whole entry, looked up): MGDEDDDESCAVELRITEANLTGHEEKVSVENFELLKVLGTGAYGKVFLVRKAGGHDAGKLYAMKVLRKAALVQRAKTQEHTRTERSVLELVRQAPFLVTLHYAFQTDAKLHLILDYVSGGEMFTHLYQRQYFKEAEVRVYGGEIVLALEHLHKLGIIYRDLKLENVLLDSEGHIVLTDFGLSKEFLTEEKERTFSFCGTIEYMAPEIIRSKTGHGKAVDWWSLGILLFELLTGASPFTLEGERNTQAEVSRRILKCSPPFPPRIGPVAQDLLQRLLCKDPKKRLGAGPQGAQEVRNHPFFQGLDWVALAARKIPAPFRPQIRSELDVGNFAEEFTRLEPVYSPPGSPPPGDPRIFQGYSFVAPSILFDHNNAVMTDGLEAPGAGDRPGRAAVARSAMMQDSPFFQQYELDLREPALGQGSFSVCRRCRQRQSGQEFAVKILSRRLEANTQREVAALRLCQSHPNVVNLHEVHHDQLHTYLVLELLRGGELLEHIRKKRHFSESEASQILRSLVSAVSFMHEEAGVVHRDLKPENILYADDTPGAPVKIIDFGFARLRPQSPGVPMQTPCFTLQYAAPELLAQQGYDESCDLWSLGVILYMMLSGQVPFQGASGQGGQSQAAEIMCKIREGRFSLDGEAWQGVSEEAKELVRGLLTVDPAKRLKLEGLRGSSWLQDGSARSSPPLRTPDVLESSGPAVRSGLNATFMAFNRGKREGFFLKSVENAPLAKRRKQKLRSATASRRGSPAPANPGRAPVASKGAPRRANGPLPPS

[9] = tested on: PRKCH (human), P24723 [V108L/G109R/L392Q]; settings: compound 1.0 µM; ATP 45 µM
CDC42BPB (human) = CDC42BPB (human) (UniProt Q9Y5S2); settings: compound 1.0 µM; ATP 10 µM

CN(C)S(=O)(=O)Nc1ccc2ccc3ncc(-c4cnn(C)c4)cc3c(=O)c2c1
residual activity (PAK3 (human)): 99% | residual activity (SRPK2 (human)): 104% | residual activity (MAPK12 (human)): 103% | residual activity (ALK (human)): 0% | residual activity (ZAP70 (human)): 127% | residual activity (DMPK (human)): 101% | residual activity (ROCK1 (human)): 107% | residual activity [1]: 62% | residual activity (CHEK2 (human)): 93% | residual activity (TSSK1B (human)): 89% | residual activity (EPHA8 (human)): 108% | residual activity [2]: 86% | residual activity [3]: 72% | residual activity (PRKCB1 (human)): 104% | residual activity (STK11 (human)): 134% | residual activity (NEK11 (human)): 118% | residual activity (MYLK (human)): 61% | residual activity (SGK3 (human)): 94% | residual activity (PASK (human)): 91% | residual activity (PDGFRB (human)): 77% | residual activity (TYRO3 (human)): 97% | residual activity [4]: 96% | residual activity [5]: 14% | residual activity (RPS6KA2 KD1 KD2 (human)): 66% | residual activity (MINK1 (human)): 105% | residual activity (IGF1R (human)): 101% | residual activity (FGFR3 (human)): 4% | residual activity (EPHA4 (human)): 103% | residual activity (STK10 (human)): 78% | residual activity [6]: 17% | residual activity [7]: 55% | residual activity (SIK1 (human)): 87% | residual activity [8]: 2% | residual activity (FES (human)): 113% | residual activity (PTK2B (human)): 101% | residual activity (RPS6KA4 KD1 KD2 (human)): 121% | residual activity [9]: 126% | residual activity (CDC42BPB (human)): 94%
